From patent US9890153B2, “Substituted 1H-pyrrolo [2, 3-b] pyridine and 1H-pyrazolo [3, 4-b] pyridine derivatives as salt inducible kinase 2 (SIK2) inhibitors” (Arrien Pharmaceuticals LLC, priority 2012, dated 2018) come the findings set out here.

T1 sequence (P57059 whole entry): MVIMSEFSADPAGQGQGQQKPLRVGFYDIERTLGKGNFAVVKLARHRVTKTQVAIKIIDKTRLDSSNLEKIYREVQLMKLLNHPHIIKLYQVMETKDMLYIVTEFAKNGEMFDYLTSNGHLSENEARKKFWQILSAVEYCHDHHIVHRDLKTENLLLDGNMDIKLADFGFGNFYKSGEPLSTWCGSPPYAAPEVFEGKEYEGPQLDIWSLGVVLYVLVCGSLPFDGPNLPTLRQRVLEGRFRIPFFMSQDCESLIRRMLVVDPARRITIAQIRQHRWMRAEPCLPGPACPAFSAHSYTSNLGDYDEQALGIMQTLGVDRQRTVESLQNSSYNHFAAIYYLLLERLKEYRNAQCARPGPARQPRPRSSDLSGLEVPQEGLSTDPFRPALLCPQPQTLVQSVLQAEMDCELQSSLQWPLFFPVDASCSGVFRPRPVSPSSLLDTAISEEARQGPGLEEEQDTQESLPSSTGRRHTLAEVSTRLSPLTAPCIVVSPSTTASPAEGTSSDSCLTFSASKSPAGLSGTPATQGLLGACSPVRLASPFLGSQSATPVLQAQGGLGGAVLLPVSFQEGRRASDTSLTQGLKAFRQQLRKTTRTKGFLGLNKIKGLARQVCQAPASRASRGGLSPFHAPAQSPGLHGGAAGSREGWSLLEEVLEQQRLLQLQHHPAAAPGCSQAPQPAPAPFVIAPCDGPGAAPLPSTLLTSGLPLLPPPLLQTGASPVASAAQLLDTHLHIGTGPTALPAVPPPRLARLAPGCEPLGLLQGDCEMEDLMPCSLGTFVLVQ
SIK2 (QIK) (SEQ ID NO: 11), sequence (Q9H0K1 whole entry): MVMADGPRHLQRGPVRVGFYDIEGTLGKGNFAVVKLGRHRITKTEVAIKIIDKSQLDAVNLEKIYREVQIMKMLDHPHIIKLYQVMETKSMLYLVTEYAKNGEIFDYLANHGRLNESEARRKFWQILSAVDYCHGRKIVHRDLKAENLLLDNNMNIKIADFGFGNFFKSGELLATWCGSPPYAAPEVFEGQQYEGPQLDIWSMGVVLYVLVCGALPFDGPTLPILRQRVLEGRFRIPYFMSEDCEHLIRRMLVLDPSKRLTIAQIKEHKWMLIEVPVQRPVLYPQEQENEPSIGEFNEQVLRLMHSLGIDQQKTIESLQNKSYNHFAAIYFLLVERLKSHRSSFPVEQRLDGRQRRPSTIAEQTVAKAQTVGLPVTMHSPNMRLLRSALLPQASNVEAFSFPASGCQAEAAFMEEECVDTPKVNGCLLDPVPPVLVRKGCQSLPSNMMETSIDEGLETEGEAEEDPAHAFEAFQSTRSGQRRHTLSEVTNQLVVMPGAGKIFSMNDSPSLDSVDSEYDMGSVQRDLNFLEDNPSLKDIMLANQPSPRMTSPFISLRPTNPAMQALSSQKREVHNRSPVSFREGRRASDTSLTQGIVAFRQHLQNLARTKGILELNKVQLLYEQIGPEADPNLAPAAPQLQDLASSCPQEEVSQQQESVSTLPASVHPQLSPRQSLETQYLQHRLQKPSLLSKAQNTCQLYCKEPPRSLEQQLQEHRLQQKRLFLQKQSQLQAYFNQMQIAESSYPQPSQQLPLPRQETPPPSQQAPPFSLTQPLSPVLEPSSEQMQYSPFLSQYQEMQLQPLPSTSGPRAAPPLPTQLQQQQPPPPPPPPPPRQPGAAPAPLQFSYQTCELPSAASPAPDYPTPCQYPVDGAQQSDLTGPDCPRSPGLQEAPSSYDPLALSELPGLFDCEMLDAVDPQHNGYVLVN

The first assay concerns the target T1, SIK1 (SEQ ID NO: 10) (Homo sapiens, UniProt P57059).
T1 construct: Reaction Biology Corporation (assay service, HotSpot panel)
As to the kind of experiment: Protein kinase assay, SIK1. Format: biochemical. The following applies: read-out: SIK1 (SEQ ID NO: 10) kinase inhibition result. On the procedure:
Briefly, specific kinase/substrate pairs along with required cofactors were prepared in reaction buffer; 20 mM Hepes (pH 7.5), 10 mMmgCl2, 1 mM EGTA, 0.02% Brij35, 0.02 mg/ml BSA, 0.1 mM Na3VO4, 2 mM DTT, 1% DMSO. Compounds were delivered into the reaction, followed ˜20 min later by addition of a mixture of ATP (Sigma) and 33P ATP (PerkinElmer) to a final concentration of 10 μM. […] IC50 values and curve fits were obtained using Prism (GraphPad Software). Kinome tree representations were prepared using Kinome Mapper (http://www.reactionbiology.com/apps/kinome/mapper/LaunchKinome.htm).
In the case of `COc1ncccc1-c1c[nH]c2nccc(-c3ccsc3)c12` [Example 36, 3-(2-methoxypyridin-3-yl)-4-(thiophen-3-yl)-1H-pyrrolo[2,3-b]pyridine], the IC50 was over 100 nM. Same read-out and setting: for `c1cnc(N2CCOCC2)c(-c2c[nH]c3nccc(-c4ccsc4)c23)c1` [Example 37, 4-(3-(4-(thiophen-3-yl)-1H-pyrrolo[2,3-b]pyridin-3-yl)pyridin-2-yl)morpholine] the value was over 100 nM; for `COc1ccc(-c2n[nH]c3nccc(-c4ccsc4)c23)c(OC)c1` [Example 87, 3-(2,4-dimethoxyphenyl)-4-(thiophen-3-yl)-1H-pyrazolo[3,4-b]pyridine], over 1000 nM. In the case of `COc1c(F)cccc1-c1c[nH]c2ncc(-c3ccsc3)cc12` [Example 125, 3-(3-fluoro-2-methoxyphenyl)-5-(thiophen-3-yl)-1H-pyrrolo[2,3-b]pyridine], the IC50 is over 1000 nM. For the molecule `COc1c(F)cc(F)cc1-c1c[nH]c2ncc(-c3cnn(C4CCN(S(C)(=O)=O)CC4)c3)cc12` [Example 214, 3-(3,5-difluoro-2-methoxyphenyl)-5-(1-(1-(methylsulfonyl)piperidin-4-yl)-1H-pyrazol-4-yl)-1H-pyrrolo[2,3-b]pyridine], the IC50 is over 1000 nM.

For the next assay, the target named is SIK2 (QIK) (SEQ ID NO: 11) (Homo sapiens, UniProt Q9H0K1). As to the kind of experiment: SIK2 kinase assay (radiometric, 10 μM ATP). Format: biochemical. The conditions noted are these: compounds purchased from vendor library, read-out: SIK2 IC50. How it is done:
Procedure: Enzyme was incubated with substrate peptide in reaction buffer in the presence and absence of test compounds or Staurosporine. All additions were done on ice, followed by the addition of ATP mix. Wells were uniformly mixed using an Eppendorff plate shaker and incubated at 30° C. for 20 min, and stopped by the addition of 5 μL of 3% phosphoric acid. Volume was increased to 100 μL by adding 0.8% phosphoric acid which was then transferred to PC filter mats (Millipore), pre-equilibrated with 70% ethanol and water. Plates were washed thrice with 100 μL 0.8% phosphoric acid and dried for an hour at 60° C.
Turning to `COc1ccc(-c2ccnc3[nH]nc(-c4cccnc4)c23)cc1OC` [compound 1, 4-(3,4-dimethoxyphenyl)-3-(pyridin-3-yl)-1H-pyrazolo[3,4-b]pyridine], the IC50 is over 100 nM. The same measure, in the same setting: for `FC(F)(F)c1cccc(-c2ccnc3[nH]nc(-c4ccc5c(c4)OCO5)c23)c1` [compound 2, 3-(benzo[d][1,3]dioxol-5-yl)-4-(3-(trifluoromethyl)phenyl)-1H-pyrazolo[3,4-b]pyridine] the value was over 1000 nM; for `COc1cc(-c2ccnc3[nH]nc(-c4cccc(NS(C)(=O)=O)c4)c23)cc(OC)c1OC` [compound 3, N-(3-(4-(3,4,5-trimethoxyphenyl)-1H-pyrazolo[3,4-b]pyridin-3-yl)phenyl)methanesulfonamide], over 1000 nM. On the same count and under the same terms, the result for `COc1cc(-c2n[nH]c3nccc(-c4cccc(C(=O)NCCN(C)C)c4)c23)cc(OC)c1OC` [compound 4, N-(2-(dimethylamino)ethyl)-3-(3-(3,4,5-trimethoxyphenyl)-1H-pyrazolo[3,4-b]pyridin-4-yl)benzamide] reads over 1000 nM; that for `COc1ccccc1-c1n[nH]c2nccc(-c3ccsc3)c12` [compound 5, 3-(2-methoxyphenyl)-4-(thiophen-3-yl)-1H-pyrazolo[3,4-b]pyridine], under 100 nM. As for `COc1cc(-c2n[nH]c3nccc(-c4ccc(C(C)C)cc4)c23)cc(OC)c1OC` [compound 6, 4-(4-isopropylphenyl)-3-(3,4,5-trimethoxyphenyl)-1H-pyrazolo[3,4-b]pyridine], the IC50 is over 100 nM.

Take `OCCNC(O)c1cccc(-c2n[nH]c3nccc(-c4cccc(C(F)(F)F)c4)c23)c1` (stereo not drawn) [compound 7, 2-((hydroxy(3-(4-(3-(trifluoromethyl)phenyl)-1H-pyrazolo[3,4-b]pyridin-3-yl)phenyl)methyl)amino)ethanol]: the IC50 was over 1000 nM. The same measure, in the same setting: the result for `COc1cccc(-c2ccnc3[nH]nc(-c4cccc(C(F)(F)F)c4)c23)c1` [compound 8, 4-(3-methoxyphenyl)-3-(3-(trifluoromethyl)phenyl)-1H-pyrazolo[3,4-b]pyridine] reads over 1000 nM; that for `COc1cc(-c2n[nH]c3nccc(-c4cccc(N(C)C)c4)c23)cc(OC)c1OC` [compound 9, N,N-dimethyl-3-(3-(3,4,5-trimethoxyphenyl)-1H-pyrazolo[3,4-b]pyridin-4-yl)aniline], over 1000 nM; that for `COc1ccccc1-c1n[nH]c2nccc(-c3ccoc3)c12` [compound 10, 4-(furan-3-yl)-3-(2-methoxyphenyl)-1H-pyrazolo[3,4-b]pyridine], under 100 nM. For the molecule `COc1cc(-c2n[nH]c3nccc(-c4cccc(C(N)=O)c4)c23)cc(OC)c1OC` [compound 11, 3-(3-(3,4,5-trimethoxyphenyl)-1H-pyrazolo[3,4-b]pyridin-4-yl)benzamide], the IC50 is over 1000 nM. On the same count and under the same terms, the result for `CNC(=O)c1cccc(-c2ccnc3[nH]nc(-c4cccc(C(F)(F)F)c4)c23)c1` [compound 12, N-methyl-3-(3-(3-(trifluoromethyl)phenyl)-1H-pyrazolo[3,4-b]pyridin-4-yl)benzamide] reads over 1000 nM.

The same assay, now with this note: read-out: SIK2 (QIK) (SEQ ID NO: 11) kinase inhibition result.
With `COc1ccc(-c2n[nH]c3nccc(-c4ccsc4)c23)cc1` [Example 7, 3-(4-methoxyphenyl)-4-(thiophen-3-yl)-1H-pyrazolo[3,4-b]pyridine], the IC50 is over 100 nM. For the molecule `c1cc(-c2ccsc2)c2cc[nH]c2n1` [Example 20, 4-(thiophen-3-yl)-1H-pyrrolo[2,3-b]pyridine], the IC50 is over 1000 nM. For `Fc1ccccc1-c1c[nH]c2nccc(-c3ccsc3)c12` [Example 22, 3-(2-fluorophenyl)-4-(thiophen-3-yl)-1H-pyrrolo[2,3-b]pyridine], the IC50 is over 1000 nM. Same read-out and setting: for `Fc1cccc(-c2c[nH]c3nccc(-c4ccsc4)c23)c1Cl` [Example 23, 3-(2-chloro-3-fluorophenyl)-4-(thiophen-3-yl)-1H-pyrrolo[2,3-b]pyridine] the value was over 100 nM; for `COc1cc(Cl)ccc1-c1c[nH]c2nccc(-c3ccsc3)c12` [Example 24, 3-(4-chloro-2-methoxyphenyl)-4-(thiophen-3-yl)-1H-pyrrolo[2,3-b]pyridine], over 100 nM; for `COc1ccc(-c2c[nH]c3nccc(-c4ccsc4)c23)cc1` [Example 25, 3-(4-methoxyphenyl)-4-(thiophen-3-yl)-1H-pyrrolo[2,3-b]pyridine], over 1000 nM. Consider `CCOc1ccccc1-c1c[nH]c2nccc(-c3ccsc3)c12` [Example 26, 3-(2-ethoxyphenyl)-4-(thiophen-3-yl)-1H-pyrrolo[2,3-b]pyridine], for which the IC50 is over 100 nM.

Turning to `COc1cc(F)ccc1-c1c[nH]c2nccc(-c3ccsc3)c12` [Example 28, 3-(4-fluoro-2-methoxyphenyl)-4-(thiophen-3-yl)-1H-pyrrolo[2,3-b]pyridine], the IC50 was over 100 nM. As to `Clc1ccnc2[nH]cc(-c3ccsc3)c12` [Example 29, 4-chloro-3-(thiophen-3-yl)-1H-pyrrolo[2,3-b]pyridine], the IC50 was over 100 nM. `COc1ccccc1-c1ccnc2[nH]cc(-c3ccsc3)c12` [Example 30, 4-(2-methoxyphenyl)-3-(thiophen-3-yl)-1H-pyrrolo[2,3-b]pyridine]: the IC50 is over 1000 nM. On the same count and under the same terms, for `COc1ncccc1-c1c[nH]c2nccc(-c3ccsc3)c12` [Example 36, 3-(2-methoxypyridin-3-yl)-4-(thiophen-3-yl)-1H-pyrrolo[2,3-b]pyridine] the value was over 100 nM. In the case of `c1cnc(N2CCOCC2)c(-c2c[nH]c3nccc(-c4ccsc4)c23)c1` [Example 37, 4-(3-(4-(thiophen-3-yl)-1H-pyrrolo[2,3-b]pyridin-3-yl)pyridin-2-yl)morpholine], the IC50 is over 100 nM. On the same count and under the same terms, for `Clc1cccc(-c2c[nH]c3nccc(-c4ccsc4)c23)c1` [Example 47, 3-(3-chlorophenyl)-4-(thiophen-3-yl)-1H-pyrrolo[2,3-b]pyridine] the value was over 100 nM; for `COc1ccc(-c2n[nH]c3nccc(-c4ccsc4)c23)c(OC)c1` [Example 87, 3-(2,4-dimethoxyphenyl)-4-(thiophen-3-yl)-1H-pyrazolo[3,4-b]pyridine], over 100 nM; for `CN(C)S(=O)(=O)c1ccccc1-c1c[nH]c2nccc(-c3ccsc3)c12` [Example 94, N,N-dimethyl-2-(4-(thiophen-3-yl)-1H-pyrrolo[2,3-b]pyridin-3-yl)benzenesulfonamide], over 1000 nM.

Consider `FC(F)(F)Oc1ccccc1-c1c[nH]c2nccc(-c3ccsc3)c12` [Example 99, 4-(thiophen-3-yl)-3-(2-(trifluoromethoxy)phenyl)-1H-pyrrolo[2,3-b]pyridine], for which the IC50 is over 1000 nM. In the case of `Fc1cc(OC(F)(F)F)ccc1-c1c[nH]c2nccc(-c3ccsc3)c12` [Example 100, 3-(2-fluoro-4-(trifluoromethoxy)phenyl)-4-(thiophen-3-yl)-1H-pyrrolo[2,3-b]pyridine], the IC50 is over 1000 nM. Same read-out and setting: the result for `COc1ccc(-c2c[nH]c3nccc(-c4ccsc4)c23)c(OC)n1` [Example 101, 3-(2,6-dimethoxypyridin-3-yl)-4-(thiophen-3-yl)-1H-pyrrolo[2,3-b]pyridine] reads over 100 nM. Still for that read-out and setting: for `COc1ccccc1-c1c[nH]c2ncc(-c3ccsc3)cc12` [Example 113, 3-(2-methoxyphenyl)-5-(thiophen-3-yl)-1H-pyrrolo[2,3-b]pyridine] the value was over 100 nM. Same read-out and setting: for `COc1c(F)cccc1-c1c[nH]c2ncc(-c3ccsc3)cc12` [Example 125, 3-(3-fluoro-2-methoxyphenyl)-5-(thiophen-3-yl)-1H-pyrrolo[2,3-b]pyridine] the value was under 100 nM; for `COc1c(F)cc(F)cc1-c1c[nH]c2ncc(-c3ccsc3)cc12` [Example 126, 3-(3,5-difluoro-2-methoxyphenyl)-5-(thiophen-3-yl)-1H-pyrrolo[2,3-b]pyridine], over 1000 nM.

Turning to `N#Cc1ccc(-c2cnc3[nH]cc(-c4cccc(F)c4Cl)c3c2)s1` [Example 132, 5-(3-(2-chloro-3-fluorophenyl)-1H-pyrrolo[2,3-b]pyridin-5-yl)thiophene-2-carbonitrile], the IC50 is over 100 nM. For the molecule `Cc1ncc(-c2cnc3[nH]cc(-c4cccc(F)c4Cl)c3c2)s1` [Example 137, 5-(3-(2-chloro-3-fluorophenyl)-1H-pyrrolo[2,3-b]pyridin-5-yl)-2-methylthiazole], the IC50 was over 100 nM.

`Clc1ccccc1-c1c[nH]c2ncc(-c3ccsc3)cc12` [Example 139, 3-(2-chlorophenyl)-5-(thiophen-3-yl)-1H-pyrrolo[2,3-b]pyridine]: the IC50 was over 1000 nM. Still for that read-out and setting: for `Fc1ccc(-c2c[nH]c3ncc(-c4ccsc4)cc23)cc1Cl` [Example 140, 3-(3-chloro-4-fluorophenyl)-5-(thiophen-3-yl)-1H-pyrrolo[2,3-b]pyridine] the value was over 1000 nM.
